According to patent publication US9429521B2, “Plant phenometrics systems and methods and devices related thereto” (BOARD OF TRUSTEES OF MICHIGAN STATE UNIVERSITY, priority 2012, dated 2016):

Columns and labels:
[1] = system: Arabidopsis thaliana plants (col-0); test: Discontinuous chlorophyll fluorescence imaging of ΦII with red actinic light after coronatine spraying; format: in vivo; conditions: 5 μM sprayed, monochromatic (red) actinic light, 1, 4, 8 and 24 hours after treatment
Protocol: Arabidopsis thaliana plants (col-0) were grown on soil at 22° C. day temperature and 18° C. night temperature, 50% humidity and an intensity of μmol photons m^−2 s^−1 with an 16:8 day:night cycle. Chlorophyll a fluorescence images of steady state (FS) and the fluorescence maximum at steady state (FM′) were collected at growth light intensity and in the absence or presence of saturating illumination, respectively. These images were used to generate images of ΦII, a measure of photosynthetic efficiency on the day of and after treatment (by spraying) with 5 μM coronatine (cor) or water (control). Coronatine is a compound produced by a bacterial plant pathogen. As a chemical analog of jasmonic acid, it elicits a stress response, which includes differential induction and repression of classes of photosynthesis associated genes (PAGs). […] For discontinuous imaging, plants were maintained in the growth chamber where they were treated and transferred to and from the fluorescence imager for measurements. For in situ imaging, the plants were allowed to readjust after transfer to the new chamber with white LED lighting for at least 24 hours prior to treatment and were kept in the chamber for the duration of experiment.

[2] = system: Arabidopsis thaliana plants (col-0); test: Continuous in situ chlorophyll fluorescence imaging of ΦII with white actinic LED after coronatine spraying; format: in vivo; conditions: 5 μM sprayed
Protocol: Arabidopsis thaliana plants (col-0) were grown on soil at 22° C. day temperature and 18° C. night temperature, 50% humidity and an intensity of μmol photons m^−2 s^−1 with an 16:8 day:night cycle. Chlorophyll a fluorescence images of steady state (FS) and the fluorescence maximum at steady state (FM′) were collected at growth light intensity and in the absence or presence of saturating illumination, respectively. These images were used to generate images of ΦII, a measure of photosynthetic efficiency on the day of and after treatment (by spraying) with 5 μM coronatine (cor) or water (control). Coronatine is a compound produced by a bacterial plant pathogen. As a chemical analog of jasmonic acid, it elicits a stress response, which includes differential induction and repression of classes of photosynthesis associated genes (PAGs). To determine if there were immediate and/or sustained effects on photosynthesis, imaging was performed discontinuously in an imager that used monochromatic (red) actinic light or continuously in situ in a growth chamber outfitted with a white actinic LED imaging system. For discontinuous imaging, plants were maintained in the growth chamber where they were treated and transferred to and from the fluorescence imager for measurements. For in situ imaging, the plants were allowed to readjust after transfer to the new chamber with white LED lighting for at least 24 hours prior to treatment and were kept in the chamber for the duration of experiment.
Imaging in situ with white LED actinic illumination minimized the stress of moving a plant from its growth environment to the instrument and with automated image capture facilitated collection of data at higher time resolution (FIG. 10). […] The effect is also heterogeneous, more strongly observed in some leaves or not occurring at all in other (younger) leaves.

SMILES: CC[C@H]1C=C(C(=O)N[C@@]2(C(=O)O)C[C@@H]2CC)[C@H]2CCC(=O)[C@H]2C1 [coronatine]
- ΦII (photosynthetic efficiency), treated vs untreated plants [1]: no differences between treated and untreated plants
- photosynthetic efficiency (ΦII) effect ([2]; in situ imaging, second day after treatment (more recent studies, not shown)): the effect was not observed
- photosynthetic efficiency (ΦII) ([2]; white LED in situ imaging, early morning on the day after treatment (21 hours)): large decrease in photosynthetic efficiency
- photosynthetic efficiency (ΦII) effect ([2]; white LED in situ imaging, mid-morning on the day after treatment (25 hours)): almost completely disappears
